{"source": "patent US20050244907A1", "about": "“Methods, compositions, and kits for analysis of enzyme activity in cells” (Applera Corporation, priority 2003, published 2005)", "key": {"E. coli β-galactosidase": {"biological_target": "E. coli β-galactosidase (Escherichia coli, UniProt P00722)", "sequence (P00722 whole entry)": "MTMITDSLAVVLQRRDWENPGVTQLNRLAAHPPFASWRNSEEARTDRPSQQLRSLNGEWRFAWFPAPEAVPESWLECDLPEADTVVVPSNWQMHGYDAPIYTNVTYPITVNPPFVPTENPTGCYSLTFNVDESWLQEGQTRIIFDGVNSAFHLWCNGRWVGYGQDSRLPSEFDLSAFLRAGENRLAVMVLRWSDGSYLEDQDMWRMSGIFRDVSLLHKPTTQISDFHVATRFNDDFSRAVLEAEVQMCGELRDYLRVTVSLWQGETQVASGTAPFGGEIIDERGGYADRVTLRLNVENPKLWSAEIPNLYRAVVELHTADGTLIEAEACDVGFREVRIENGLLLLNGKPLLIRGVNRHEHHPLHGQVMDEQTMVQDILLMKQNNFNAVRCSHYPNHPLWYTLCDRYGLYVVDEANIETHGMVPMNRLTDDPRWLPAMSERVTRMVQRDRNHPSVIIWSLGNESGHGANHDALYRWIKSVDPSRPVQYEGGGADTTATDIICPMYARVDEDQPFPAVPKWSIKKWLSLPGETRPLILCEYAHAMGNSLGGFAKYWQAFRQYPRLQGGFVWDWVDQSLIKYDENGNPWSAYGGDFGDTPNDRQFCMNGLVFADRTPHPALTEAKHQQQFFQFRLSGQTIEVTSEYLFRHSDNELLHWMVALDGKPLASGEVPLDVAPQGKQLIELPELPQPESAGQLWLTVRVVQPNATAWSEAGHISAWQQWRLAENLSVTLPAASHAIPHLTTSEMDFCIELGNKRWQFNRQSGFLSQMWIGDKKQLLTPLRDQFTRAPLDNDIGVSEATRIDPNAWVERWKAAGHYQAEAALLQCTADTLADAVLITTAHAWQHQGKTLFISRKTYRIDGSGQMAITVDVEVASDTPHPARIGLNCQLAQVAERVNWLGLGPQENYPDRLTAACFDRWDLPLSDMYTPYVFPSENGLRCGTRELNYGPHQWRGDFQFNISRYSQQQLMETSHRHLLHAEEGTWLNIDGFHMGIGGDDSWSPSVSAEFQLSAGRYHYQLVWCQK", "details": "psi 2 BAGα cells constitutively expressing β-galactosidase; 3 hr at 37° C.; excitation 633 nm; emission 685-710 nm (panel B)", "procedure": "Psi 2 BAGα cells (ATCC, catalog no. CRL-9560) in Dulbecco's modified Eagle's medium (ATCC, catalog no. 30-2002) containing 5% Fetal Bovine Serum (FBS, HyClone, catalog no. SH30071.03) and 1% penicillin-streptomycin solution (pen/strep, ATCC, catalog no. 30-2300) were seeded (200 μl/well, 10,000 cell/well) in black 96 well microtiter plates (ABI, catalog no. 4308776). […] After overnight incubation at 37° C. under 5% CO2 the supernatants were removed carefully so as not to detach the adherent cells from the wells. Solutions of liposome encapsulated DDAO-gal, liposome encapsulated DDAO and nonencapsulated DDAO-gal were prepared in the appropriate cell medium and then added to the cells (200 μl/well). The nonencapsulated DDAO-gal solution was used as a negative control (no liposome, passive uptake) and the liposome encapsulated DDAO solution was used as a positive control (DDAO is the product of DDAO-gal hydrolysis). After incubation for 3 hr at 37° C. under 5% CO2 the staining solutions were removed carefully and the cells were washed twice with Dulbecco's PBS (200 μl, ATCC, catalog no. 30-2200). PBS (200 μl) was added to the wells and the plate was read using an 8100 FMAT instrument (Applied Biosystems, an Applera Corporation business).\nDDAO-gal without liposomes were used as a negative control (passive load) and liposomes containing DDAO were used as a positive control. […]"}, "CHO cells": {"test_system": "CHO cells", "experiment": "Cell staining with liposomes containing DDAO-gal, CHO cells (FMAT fluorescence)", "type": "cell-based, Chinese Hamster", "details": "no endogenous β-galactosidase, 3 hr at 37° C., excitation 633 nm", "description": "The experiments shown in FIGS. 7-9, were conducted under similar conditions to those of FIGS. 1-3, respectively, with the exception that Chinese Hamster Ovary (CHO) cells were used."}}}
{"smiles": "CC1(C)C2=C(Cl)C(=O)C(Cl)=CC2=Nc2ccc(O[C@@H]3O[C@H](CO)[C@H](O)[C@H](O)[C@H]3O)cc21", "note": "[DDAO-gal, 9H-(1,3-dichloro-9,9-dimethylacridin-2-one-7-yl) β-D-galactopyranoside]", "values": [{"measurement": "fluorescent signal", "setting": "E. coli β-galactosidase", "value": "much lower signal"}, {"measurement": "fluorescent signal", "setting": "CHO cells", "value": "signal observed"}]}
